Values of other authors as cited in paper PMC8497432 (ChemMedChem, 2021).

Conditions: ref 6f

cell permeability: approximately 5%
Substance: UNC3866
